In US20200079766A1, “MONOCYCLIC OGA INHIBITOR COMPOUNDS” (Janssen Pharmaceutica NV, priority 2016, published 2020):
Read-outs that look alike come from different tables or passages of the source.

Target: T1, recombinant human Meningioma Expressed Antigen 5 (MGEA5), also referred to as O-GlcNAcase (OGA) (Homo sapiens, UniProt O60502)
T1 construct: Full length OGA enzyme was purchased at OriGene (cat # TP322411); purchased OriGene TP322411
T1 sequence (O60502 1-916): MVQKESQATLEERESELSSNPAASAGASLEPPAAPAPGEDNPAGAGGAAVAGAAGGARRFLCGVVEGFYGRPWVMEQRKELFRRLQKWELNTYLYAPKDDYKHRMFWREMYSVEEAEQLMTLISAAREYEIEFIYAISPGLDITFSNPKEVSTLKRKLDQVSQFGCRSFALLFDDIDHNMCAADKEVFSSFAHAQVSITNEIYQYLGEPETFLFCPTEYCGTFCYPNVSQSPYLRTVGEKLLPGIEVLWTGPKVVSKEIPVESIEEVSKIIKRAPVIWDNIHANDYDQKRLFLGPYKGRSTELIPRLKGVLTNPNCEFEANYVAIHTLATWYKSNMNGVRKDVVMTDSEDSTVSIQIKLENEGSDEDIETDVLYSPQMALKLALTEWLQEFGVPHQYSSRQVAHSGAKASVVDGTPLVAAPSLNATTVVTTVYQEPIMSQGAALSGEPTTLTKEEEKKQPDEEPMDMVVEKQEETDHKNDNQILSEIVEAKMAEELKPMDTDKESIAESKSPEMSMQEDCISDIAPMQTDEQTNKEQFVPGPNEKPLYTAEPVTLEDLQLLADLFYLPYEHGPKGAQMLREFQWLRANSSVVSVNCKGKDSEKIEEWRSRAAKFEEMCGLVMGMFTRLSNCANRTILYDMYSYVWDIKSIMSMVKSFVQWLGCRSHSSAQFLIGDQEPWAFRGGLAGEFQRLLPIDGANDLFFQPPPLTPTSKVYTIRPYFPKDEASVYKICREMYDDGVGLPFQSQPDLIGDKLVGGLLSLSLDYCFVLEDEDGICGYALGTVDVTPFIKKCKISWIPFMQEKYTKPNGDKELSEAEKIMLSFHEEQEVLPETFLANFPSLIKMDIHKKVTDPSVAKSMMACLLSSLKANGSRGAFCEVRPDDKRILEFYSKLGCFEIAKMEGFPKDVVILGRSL
Test: OGA biochemical assay: inhibition of FM-GlcNAc hydrolysis, fluorescence; protocol A (10 nM OGA, 1 h) or protocol B (2 nM OGA, 6 h)
Settings: for IC50: read-out: Enzymatic hOGA, pIC50 (converted)
Text: The assay is based on the inhibition of the hydrolysis of fluorescein mono-3-D-N-Acetyl-Glucosamine (FM-GlcNAc) (Mariappa et al. 2015, Biochem J 470:255) by the recombinant human Meningioma Expressed Antigen 5 (MGEA5), also referred to as O-GlcNAcase (OGA). The hydrolysis FM-GlcNAc (Marker Gene technologies, cat # M1485) results in the formation of ß-D-N-glucosamineacetate and fluorescein. The fluorescence of the latter can be measured at excitation wavelength 485 nm and emission wavelength 538 nm. An increase in enzyme activity results in an increase in fluorescence signal. Full length OGA enzyme was purchased at OriGene (cat # TP322411). The enzyme was stored in 25 mM Tris.HCl, pH 7.3, 100 mM glycine, 10% glycerol at −20° C. Thiamet G and GlcNAcStatin were tested as reference compounds (Yuzwa et al. 2008 Nature Chemical Biology 4:483; Yuzwa et al. 2012 Nature Chemical Biology 8:393). The assay was performed in 200 mM Citrate/phosphate buffer supplemented with 0.005% Tween-20. 35.6 g Na2HPO42H2O (Sigma, # C0759) were dissolved in 1 L water to obtain a 200 mM solution. 19.2 g citric acid (Merck, #1.06580) was dissolved in 1 L water to obtain a 100 mM solution. pH of the sodiumphosphate solution was adjusted with the citric acid solution to 7.2. The buffer to stop the reaction consists of a 500 mM Carbonate buffer, pH 11.0. 734 mg
FM-GlcNAc were dissolved in 5.48 mL DMSO to obtain a 250 mM solution and was stored at −20° C. OGA was used at a 10 nM (protocol A) or 2 nM (protocol B) concentration and FM-GlcNAc at a 100 uM final concentration. Dilutions were prepared in assay buffer.
50 nl of a compound dissolved in DMSO was dispensed on Black Proxiplate™ 384 Plus Assay plates (Perkin Elmer, #6008269) and 3 μl fl-OGA enzyme mix added subsequently. Plates were pre-incubated for 60 min at room temperature and then 2 μl FM-GlcNAc substrate mix added. […] Plates were briefly centrifuged for 1 min at 1000 rpm and incubate at room temperature for 1 h (10 nM OGA, protocol A) or 6 h (2 nM OGA, protocol B). To stop the reaction 5 μl STOP buffer were added and plates centrifuge again 1 min at 1000 rpm. Fluorescence was quantified in the Thermo Scientific Fluoroskan Ascent or the PerkinElmer EnVision with excitation wavelength 485 nm and emission wavelength 538 nm.
For analysis a best-fit curve is fitted by a minimum sum of squares method. From this an IC50 value and Hill coefficient was obtained. High control (no inhibitor) and low control (saturating concentrations of standard inhibitor) were used to define the minimum and maximum values.

[1] = Enzymatic protocol B (2 nM OGA, 6 h)
[2] = Enzymatic protocol A (10 nM OGA, 1 h)

Row | Structure (SMILES) | Emax [1] [%] | IC50 [1] [nM] | further results
1 | Cc1cc(C[C@H]2CCN(C(C)c3nc4ccccc4[nH]3)C2)cc(C)n1 (mixture of isomers) [compound 78] | 8.78 | > 10000 | –
2 | Cc1cc(C[C@H]2CCN(C(C)c3cc4ccccc4n3C)C2)cc(C)n1 (mixture of isomers) [compound 94] | 30.7 | > 10000 | –
3 | CC(=O)Nc1ncc(CN2CCCC(COc3cc(C)nc(C)c3)C2)[nH]1 (racemic) [compound 132] | 91.9 | 1230 | –
4 | Cc1cc(CC2CCCN(C(C)c3nc4ccccc4[nH]3)C2)cc(C)n1 (racemic) [compound 149] | 67.6 | 5370 | –
5 | Cc1cc(OCC2(F)CCCN(Cc3ccc4nccnc4c3)C2)cc(C)n1 (racemic) [compound 157] | 69 | 2400 | –
6 | CC(=O)Nc1ncc(CN2C[C@@H](F)C[C@@H](COc3cc(C)nc(C)n3)C2)s1 (racemic) [compound 164] | 94 | 617 | –
7 | CC(=O)Nc1ncc(CN2C[C@@H](Cc3cc(C)nc(C)c3)CC[C@@H]2C)s1 (racemic) [compound 165] | 100 | 2.24 | –
8 | CC(=O)Nc1ncc(CN2C[C@@H](Cc3cc(C)nc(C)c3)CC[C@H]2C)s1 (racemic) [compound 166] | 99 | 2.63 | –
9 | CC(=O)Nc1ncc(CN2CCC[C@@H](Cc3cc(C)nc(C)c3)[C@H]2C)s1 (racemic) [compound 169] | 100 | 87.1 | –
10 | CC(=O)Nc1ncc(CN2CCCC(c3cc(C)nc(C)c3)C2)s1 (single isomer, unassigned) [compound 131] | – | 977 | Enzymatic Emax (%) [1]: 85.38%
11 | CC(=O)Nc1ncc(CN2CCC[C@@H](Cc3cc(C)nc(C)c3)[C@H]2C)s1 (single isomer, unassigned) [compound 170] | 100 | 81.3 | –
12 | CC(=O)Nc1ncc(CN2CCC[C@H](Cc3cc(C)nc(C)c3)[C@@H]2C)s1 (single isomer, unassigned) [compound 171] | 52 | 9550 | –
13 | CC(=O)Nc1ncc(S(=O)(=O)N2CCCC(Oc3cc(C)nc(C)c3)C2)s1 (centres unmarked) [compound 1] | – | – | Emax [2]: 96.3%; IC50 [2]: 661 nM
14 | CC(=O)Nc1ncc(S(=O)(=O)N2CCCC(Oc3ccnc(C)c3)C2)s1 (centres unmarked) [compound 2] | – | – | Emax [2]: 89%; IC50 [2]: 1050 nM
15 | CC(=O)Nc1ncc(S(=O)(=O)N2CCC(c3ccnc(C)c3)C2)s1 (centres unmarked) [compound 3] | 43 | > 10000 | Emax [2]: 15%; IC50 [2]: > 10000 nM
16 | CC(=O)Nc1ncc(S(=O)(=O)N2CCC(c3ccc(C)nc3)C2)s1 (centres unmarked) [compound 4] | 50.5 | – | –
17 | CC(=O)Nc1ncc(CN2CCCC(c3ccccc3)C2)s1 (centres unmarked) [compound 5, reference compound] | – | – | Emax [2]: 102%; IC50 [2]: 141 nM
18 | CC(=O)Nc1ncc(CN2CCC[C@@H](Nc3cc(C)nc(C)c3)C2)s1 [compound 8] | 101 | 50.1 | –
19 | Cc1cc(N[C@@H]2CCCN(Cc3ccc4nccnc4c3)C2)cc(C)n1 [compound 10] | 85.6 | 1660 | –
20 | Cc1cc(N[C@H]2CCCN(Cc3ccc4nccnc4c3)C2)cc(C)n1 [compound 12] | 92.9 | 676 | –
21 | CC(=O)Nc1ncc(CN2CCCC(OCc3cc(C)nc(C)c3)C2)s1 (centres unmarked) [compound 21] | 101 | 63.1 | –
22 | CC(=O)Nc1ncc(CN2CC[C@@H](Nc3cc(C)nc(C)c3)C2)s1 [compound 22] | 99.8 | 214 | –

Row | Structure (SMILES) | Emax [1] [%] | IC50 [1] [nM] | further results
23 | CC(=O)Nc1ncc(CN2CC[C@H](Nc3cc(C)nc(C)c3)C2)s1 [compound 23] | 101 | 158 | –
24 | CC(=O)Nc1ncc(CN2CCCC(N(C)c3cc(C)nc(C)c3)C2)s1 (centres unmarked) [compound 32] | 101 | 13.5 | –
25 | CC(=O)Nc1ncc(CN2CC[C@@H](Cc3ccc(C(F)(F)F)c(C)n3)C2)s1 [compound 36] | 99 | 56.2 | –
26 | CC(=O)Nc1ncc(CN2CCC(Cc3cccc(C(C)C)n3)C2)s1 (centres unmarked) [compound 40] | 99.7 | 7.76 | –
27 | COc1cc(C[C@H]2CCN(Cc3cnc(NC(C)=O)s3)C2)cc(C)n1 [compound 42] | 101 | 8.32 | –
28 | CC(=O)Nc1ncc(CN2CC[C@H](Cc3cncnc3)C2)s1 [compound 55] | 99.8 | 55 | –
29 | COc1ccc(C)nc1C[C@H]1CCN(Cc2cnc(NC(C)=O)s2)C1 [compound 57] | 100 | 45.7 | –
30 | CC(=O)Nc1ncc(CN2CCC(Cc3ccc(C(F)(F)F)nn3)C2)s1 (centres unmarked) [compound 65] | – | – | Enzymatic Emax (%) [1]: 100%; Enzymatic hOGA; pIC50 [1]: 7.28
31 | CC(=O)Nc1ncc(CN2CCC(Cc3ccc(C(F)(F)F)cn3)C2)s1 (centres unmarked) [compound 68] | – | – | Enzymatic Emax (%) [1]: 101.5%; Enzymatic hOGA; pIC50 [1]: 7.10
32 | Cc1cc(C[C@H]2CCN(Cc3ccc4sc(C)nc4c3)C2)cc(C)n1 [compound 82] | – | – | Enzymatic Emax (%) [1]: 87.4%; Enzymatic hOGA; pIC50 [1]: 5.91
33 | Cc1cc(C[C@H]2CCN(Cc3ccc4scnc4c3)C2)cc(C)n1 [compound 83] | – | – | Enzymatic Emax (%) [1]: 87.8%; Enzymatic hOGA; pIC50 [1]: 5.79
34 | Cc1cc(C[C@H]2CCN(Cc3ccc4c(c3)OCO4)C2)cc(C)n1 [compound 99] | – | – | Enzymatic Emax (%) [1]: −6.5%; Enzymatic hOGA; pIC50 [1]: <5
35 | Cc1cc(C[C@H]2CCN(Cc3ccc4c(c3)OCCO4)C2)cc(C)n1 [compound 101] | – | – | Enzymatic Emax (%) [1]: 81.7%; Enzymatic hOGA; pIC50 [1]: 5.8
36 | Cc1cc([C@@H]2CCCN([C@@H](C)c3ccc4sc(C)nc4c3)C2)cc(C)n1 [compound 116] | 79.2 | 3470 | –
37 | CC(=O)Nc1ncc(CN2CCCC(COc3cc(C)nc(C)c3)C2)[nH]1 (centres unmarked) [compound 120] | 91.9 | 1230 | –
38 | CC(=O)Nc1ncc(CN2CCC[C@H](Cc3cnc(C)c(C)n3)C2)s1 [compound 124] | 100 | 1.74 | –
39 | CC(=O)Nc1ncc(CN2CCC[C@H](Cc3ccc(C)nc3C#N)C2)s1 [compound 125] | 100 | 1.7 | –
40 | Cc1cc(C[C@H]2CCCN(Cc3ccc4c(c3)OCO4)C2)cc(C)n1 [compound 146] | 93.5 | 1000 | –
41 | Cc1cc(C[C@H]2CCCN(Cc3cc4ccccc4n3C)C2)cc(C)n1 [compound 150] | 20.8 | > 10000 | –
42 | Cc1cc(C[C@H]2CCCN(Cc3nc4ccccc4[nH]3)C2)cc(C)n1 [compound 151] | 2.86 | > 10000 | –
43 | Cc1cc(C[C@H]2CCCN(Cc3nc4ccccc4n3C)C2)cc(C)n1 [compound 153] | 23.9 | > 10000 | –
44 | CC(=O)Nc1ncc(CN2CC(COc3cc(C)nc(C)n3)CC(F)(F)C2)s1 (centres unmarked) [compound 161] | 48 | > 10000 | –
